In experiment [1] the test system is mouse cancer cell line EG7 expressing OVA. The experiment in a line: Effect in vivo: EG7 tumor-bearing B6 mice with transferred OT-1 cells. Further details: species or system C57BL/6J mouse. Particulars: for frequency of CD45.1+OT-1 cells (OVA specific CD8+ cells) in peripheral blood / expression of CD62L and CD127 in CD45.1+OT-1 cells: 100 μg/mouse tail vein; for frequency of CD45.1+OT-1 cells (OVA specific CD8+ cells) in peripheral blood: 20th day after tumor transplantation (FIG. 5); for expression of CD62L and CD127 in CD45.1+OT-1 cells: 20th day, flow cytometry (FIG. 6); for proliferation of tumor in vivo / tumor volume: 100 μg/mouse through the tail vein, 3 times every other day; for tumor volume: 21st day after transplantation (FIG. 4). An excerpt:
A mouse cancer cell line EG7 (2×10^6) expressing OVA (chicken ovalbumin) was subcutaneously injected into C57BL/6J mouse (B6 mouse) to form a tumor. Five days later, the mouse in which a tumor was formed was irradiated with radiation at 3 Gy, then T cell-receptive OTCD8^+T cells (OT-1 cells) specific for OVA antigen were isolated from CD45.1 positive OT-I transgenic mouse, and this was transferred into the mouse by 2×10^5 through the tail vein. A total of 3 times every other day from the next day, RDH10 inhibitors (Compound No. 1 (RDHI-012) and Compound No. 2 (RDHI-013)) were administered to the mouse at 100 μg/mouse for each through the tail vein. The RDH10 inhibitors were administered to the mouse by being previously stocked in DMSO at 100 μg/50 μl and adjusted to have a total volume of 200 μl by the addition of 150 μl of PBS.
In the experiment, tumor volumes were measured over time. The frequency of OT-1 cells (OVA specific CD8^+T cells) in peripheral blood on the 20th day was measured. Furthermore, the expression intensity of cell surface antigen molecules (CD62L, CD127), which were markers of memory T cells, was analyzed.
The time course in the mean value of tumor volume after tumor transplantation is illustrated in FIG. 4. The error bars indicate the standard error. The tumor volume was determined by major axis×minor axis×height/2.
On the 20th day after the tumor transplantation, the frequency of transferred OT-I cells contained in peripheral blood was analyzed by flow cytometry. OT-I cells were CD45.1 positive and thus were clearly distinguishable from the host B6 mouse (CD45.2 positive)-derived T cells. The representative results are illustrated in FIG. 5.
The expression intensities of CD62L and CD127 in OT-I cells illustrated in FIG. 5 were analyzed by flow cytometry. The mean value and standard error of each expression intensity are illustrated in FIG. 6.
(In general: Flow cytometry measures light scatter and fluorescence of single cells or particles in a stream.)

Experiment [2] concerns the target T1, Retinol Dehydrogenase 10 (RDH10) (Homo sapiens, UniProt Q8IZV5).
T1 construct: expressed in transfected cells; host or cells: 293T (microsomal fraction)
T1 sequence (Q8IZV5 1-341): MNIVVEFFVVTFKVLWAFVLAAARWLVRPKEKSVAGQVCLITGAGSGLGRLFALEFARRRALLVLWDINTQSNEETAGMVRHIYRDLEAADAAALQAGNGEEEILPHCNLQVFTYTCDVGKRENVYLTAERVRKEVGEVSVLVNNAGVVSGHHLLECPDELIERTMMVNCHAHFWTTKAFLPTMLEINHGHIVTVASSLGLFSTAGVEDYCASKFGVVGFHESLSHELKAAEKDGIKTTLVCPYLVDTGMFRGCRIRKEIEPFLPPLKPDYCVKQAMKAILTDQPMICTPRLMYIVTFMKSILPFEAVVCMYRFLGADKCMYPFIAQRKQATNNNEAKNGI
Nature of the experiment: Inhibition of RDH10 enzyme activity (microsomal fraction of RDH10-expressed 293T, all-trans retinol to all-trans retinal, HPLC). The following applies: final concentration of 20 μM; relative to DMSO control (FIG. 1). Type of experiment: biochemical. The method, then:
All-trans retinol, BSA, and NAD (nicotinamide adenine dinucleotide) as a coenzyme were added to a buffer for reaction (90 mM potassium phosphate buffer, pH7.4, 40 mM KCl) so as to have final concentrations of 10 μM, 10 μM, and 1 mM respectively. This mixture was taken in siliconized tubes by 200 μl for each, the microsomal fractions separated from 293T and RDH10-expressed 293T were added to separate tubes by 10 μl for each, and the mixtures were allowed to react at 37° C. for 15 minutes. After 200 μl of methanol was added to the reaction mixtures to stop the reaction, retinoid was extracted using hexane and concentrated. The concentrated retinoid was dissolved in 150 μl of acetonitrile, separated by HPLC, and subjected to the detection of ultraviolet light absorption at a wavelength of 350 nm, whereby the substrate (all-trans retinol) and the product (all-trans retinal) were detected. In addition, standard samples (all-trans retinol and all-trans retinal) were separated by HPLC and the retention times of the respective standard samples were determined in advance. The solvent for HPLC was acetonitrile: 50 mM ammonium acetate=75:25. As the separation column, Syhergi 4 μm Hydro-RP 80A (manufactured by Phenomenex) was used. In addition, the flow rate was 2.0 ml/min. The RDH10 enzyme activity was calculated by reading the amount of product per fixed time from the chart of HPLC.
All-trans retinol, BSA, and NAD (nicotinamide adenine dinucleotide) as a coenzyme were added to a buffer for reaction (90 mM potassium phosphate buffer, pH7.4, 40 mM KCl) so as to have final concentrations of 10 μM, 10 μM, and 1 mM respectively. This mixture was taken in siliconized tubes by 200 μl for each, the microsomal fraction separated from RDH10-expressed 293T was added to separate tubes by 10 μl for each. The RDH10 inhibitor dissolved in DMSO was added to each tube so as to have a final concentration of 20 μM, and the same amount of DMSO was added to the control tube. The mixture was allowed to react at 37° C. for 15 to 30 minutes, 200 μl of methanol was added to the reaction mixtures, and then retinoid was extracted using hexane and concentrated. The concentrated retinoid was dissolved in 150 μl of acetonitrile, separated by HPLC, and subjected to the detection of ultraviolet light absorption at a wavelength of 350 nm, whereby the substrate (all-trans retinol) and the product (all-trans retinal) were detected. In addition, standard samples (all-trans retinol and all-trans retinal) were separated by HPLC and the retention times of the respective standard samples were determined in advance. The solvent for HPLC was acetonitrile: 50 mM ammonium acetate=75:25. As the separation column, Syhergi 4 μm Hydro-RP 80A (manufactured by Phenomenex) was used. The flow rate was 2.0 ml/min.
The enzyme activity was determined by the waveform area of the product (all-trans retinal) with respective to the waveform area of the non-reacted substrate (all-trans retinol), and the relative value with respect to the enzyme activity in the control is illustrated in FIG. 1. The error bars indicate SD (standard deviation).

SMILES strings stand for the structures. Entries after “also recorded” stand apart in the source; their conditions may differ.

Turning to `COC(=O)[C@@]1(C)CC[C@]2(C)CC[C@]3(C)C(=CC(=O)[C@@H]4[C@@]5(C)CCC(N)C(C)(C)[C@@H]5CC[C@]43C)[C@@H]2C1` (stereo partly drawn) [Compound No. 2, (2S,4aS,6aS,6bR,8aR,12aS,12bR,14bR)-methyl 10-amino-2,4a,6a,6b,9,9,12a-heptamethyl-13-oxo-1,2,3,4,4a,5,6,6a,6b,7,8,8a,9,10,11,12,12a,12b,13,14b-icosahydropicene-2-carboxylate], in experiment [1], the “frequency of CD45.1+OT-1 cells (OVA specific CD8+ cells) in peripheral blood” value is on record as “amplify CD45.1^+OT-1 cells”; the “expression of CD62L and CD127 in CD45.1+OT-1 cells” value is “accelerate the expression of CD62L and CD127”; the “proliferation of tumor in vivo” value is given as “suppress the proliferation of tumor in vivo”; the tumor volume result is “decreased to one several tenths to one several hundredths”. Moreover, the “RDH10 enzyme activity inhibitory action” value in experiment [2] is given as “relatively potent; also recorded: potent RDH10 enzyme activity inhibitory action”.

In the case of `COC(=O)[C@@]1(C)CC[C@]2(C)CC[C@]3(C)C(=CC(=O)[C@@H]4[C@@]5(C)CCC(N)C(C)(C)[C@@H]5CC[C@]43C)[C@H]2C1` (stereo partly drawn) [Compound No. 1, (2S,4aS,6aS,6bR,8aR,12aS,12bR,14bS)-methyl 10-amino-2,4a,6a,6b,9,9,12a-heptamethyl-13-oxo-1,2,3,4,4a,5,6,6a,6b,7,8,8a,9,10,11,12,12a,12b,13,14b-icosahydropicene-2-carboxylate], in experiment [1], the “frequency of CD45.1+OT-1 cells (OVA specific CD8+ cells) in peripheral blood” value is reported as “amplify CD45.1^+OT-1 cells”; the “expression of CD62L and CD127 in CD45.1+OT-1 cells” value is “accelerate the expression of CD62L and CD127”; the “proliferation of tumor in vivo” value is “suppress the proliferation of tumor in vivo”; the tumor volume result is given as “decreased to one several tenths to one several hundredths”. In addition, in experiment [2], the “RDH10 enzyme activity inhibitory action” value was “relatively potent; also recorded: potent RDH10 enzyme activity inhibitory action”.
